Data reported in PMC4666614, “Identification of New Regions in HIV-1 gp120 Variable 2 and 3 Loops that Bind to α4β7 Integrin Receptor” (PLoS ONE, 2015).
“And” between values parts separate entries of the source, which are not always exact repeats. Equal values may be shown once. Bridge positions count the residues as written; N and C are the ends. Ends that are not written are not given here.

Tests used:
[1] = system: α4β7 integrin binding to MAdCAM-1; assay: Competitive inhibition of binding of α4β7 on RPMI8866 cells to MAdCAM-1 by peptides, viruses, IMCs and controls; format: cell-based, human; conditions: for % Inhibition ± SD of α4β7 integrin binding to MAdCAM-1: average of 3–7 experiments in triplicate; for Inhibition of α4β7 integrin binding to MAdCAM-1 by peptide (competition): peptide 10 μg/ml, cells pre-incubated 45 min 37°C, 2–4 experiments in triplicate
Protocol: 96-well plates were coated with MAdCAM-1 as described above. RPMI8866 cells (2 X 10^6/ ml) were incubated with cyclic V2 or V3 MN, TH023, or acute subtype C (C-6980v0c22) peptides or with scrambled flanking region (SFL) or the mid region (SMR) TH023 V2 or with a completely scrambled (SCR) TH023 peptide (10 μg/ml) for 45 minutes at 37°C before being added in triplicate to the MAdCAM-1 coated plates for 1 hour at 37°C. In concurrent experiments, RMI8866 cells were incubated with purified primary HIV-1 (0.75 ng to 6 ng/well p24) subtype B (SF162, US-1, JRFL), subtype CRF01_AE viruses (92TH023), IMCs (0.75 ng to 1000 ng/well p24 in each case) containing acute or chronic envelopes (Acute CRF01_AE (703357) [GenBank:JN944658], C (C-6980v0c22) [GenBank:HM215344], A(851891); Chronic CRF01_AE (CM235.2) [AF259954.1], C (ET02220LucR) [U46016]) or with pSG3Δenv. pSG3Δenv contained a four-nucleotide insertion mutation (CTAG) in Env, leading to a translation stop codon after amino acid residue 142. The pSG3Δenv clone is routinely used for generating Env pseudotyped infectious virions.
Viruses were tested in triplicate in two independent experiments. In additional experiments, mannose, HIV-1 p24, and ovalbumin (0.2–10 μg/ml) were used in the competition assay as nonspecific protein controls (data in Table 2; 3–7 experiments performed in triplicate), whereas, an anti-RSV mAb, Synagis® was used as a nonspecific antibody control. Synagis® was incubated for 45 minutes with either MAdCAM-1 or with RPMI8866 cells and then placed in the assay system. The remainder of the assay was similar to that described above. Significance was determined by paired Student’s t test.

[2] = system: α4β7 on RPMI8866 cells; assay: Binding of α4β7 on RPMI8866 cells to plate-bound biotinylated V2/V3 peptides and its inhibition by ACT-1 (AlamarBlue); format: cell-based, human; conditions: streptavidin plate, biotinylated peptide 5 μg/ml; cells pre-incubated with ACT-1 0.5 μg/ml 45 min 37°C; 8 hour time point; average of 3 to 12 experiments in duplicate or triplicate
Protocol: Triplicate wells of a 96-well U-bottom polystyrene plate (Immunlon) were coated overnight at 4°C with 100 μl of 2 μg/ml of MAdCAM-1 or Streptavidin diluted in 0.05 M bicarbonate buffer, pH 9.6. The streptavidin-coated plates were then incubated with biotinylated cyclic or linear V2 peptides or cyclic V3 peptides (5 μg/ml in bicarbonate buffer, See Table 1 for sequence data) for 1 hour at 37°C. The solution from the plates was discarded and the plates were then blocked with blocking buffer (25 mM TRIS, 2.7 mM potassium chloride, 150 mM sodium chloride, 0.5% casein, 4 mM manganese chloride, pH 7.2) for 1 hour at 37°C. The solution was discarded and the plates were incubated with sample buffer (25 mM TRIS, 2.7 mM potassium chloride, 150 mM sodium chloride, 4 mM manganese chloride, pH 7.2 containing 1% fetal bovine sera) for 45 minutes at 37°C. Plates were manually washed 4 times with blocking buffer followed by the addition of 2 x 10^5 RPMI8866 cells/well that had been pre-incubated for 45 minutes at 37°C with sample buffer, with sample buffer containing 0.5 μg/ml of mAb ACT-1 or as a control, normal mouse serum (1:100). Plates were then incubated at 37°C (5% CO2) for 1 hour, washed 5 times with wash buffer followed by the addition of 100 μl of RPMI-1640 containing 1% FBS, pen/strep/glutamine. The adhered cells were detected by the addition of 10 μl of AlamarBlue® dye. Plates were incubated at 37°C (5% CO2) for 8 hours. Fluorescence was measured at 2 hour intervals using a M2 plate reader. For each condition, a minimum of 2 to 12 independent experiments run in duplicate or triplicate was performed. The optimum amount of coating proteins/peptides and the amount of ACT-1 required to inhibit α4β7 on RPMI8866 cells was determined in separate experiments (data not shown).

[3] = system: α4β7 on RPMI8866 cells; assay: Flow cytometry binding of ACT-1, gp120 and cyclic V2 peptides to RPMI8866 cells; set-up: species or system human; conditions: gp120 2.5 μg (anti-gp145 + anti-mouse Texas Red); biotinylated peptides 1 μg and 5 μg (neutrAvidin-PE); 30 min on ice; n = 2
Protocol: RPMI8866 cells (0.5 x10^6) were incubated for 30 minutes on ice with 10% normal goat sera in PBS to block the Fc receptors. Cells were suspended in cold FACS buffer (PBS-containing 0.5% BSA) and incubated at room temperature for 30 minutes with the mAb ACT-1 conjugated to APC (1 μg). Cells were washed twice with cold FACS buffer, fixed with 2% formaldehyde in PBS, and analyzed on a LSRII flow cytometer. The data was analyzed using FlowJo8.8.6 software (TreeStar Inc.).
RPMI8866 cells (1 x10^6) were suspended in cold FACS buffer (PBS-containing 0.5% BSA) and incubated at room temperature for 30 minutes with LIVE ⁄ DEAD® Fixable Dead Cell Stain (Life Technologies) as per the manufacturer’s instruction. Cells were washed twice with cold FACS buffer before being incubated with 10% goat sera in PBS for 30 minutes on ice. All subsequent incubations were carried out for 30 minutes on ice. CHO- expressed HIV-1IIIB rgp120 (2.5 μg) and biotinylated cyclic V2-TH023 peptide (1 μg and 5 μg) were incubated with RPMI8866 cells. […] Cells were washed twice with cold FACS buffer, fixed with 2% formaldehyde in PBS, and analyzed on a LSRII flow cytometer. The data was analyzed using FlowJo8.8.6 software (TreeStar Inc.).

Row | Compound | Percent inhibition by ACT-1 of binding of α4β7 on RPMI8866 cells to the plate-bound peptide [2] | Inhibition of α4β7 integrin binding to MAdCAM-1 by peptide (competition) [1] | further results
1 | OC[C@H]1OC(O)[C@@H](O)[C@@H](O)[C@@H]1O (stereo partly drawn) [Mannose, mannose, reference compound] | – | – | % Inhibition ± SD of α4β7 integrin binding to MAdCAM-1 ([1]; 0.2 μg/ml): 6.7 ± 7.6%; % Inhibition ± SD of α4β7 integrin binding to MAdCAM-1 ([1]; 1.0 μg/ml): 7.6 ± 8.8%; % Inhibition ± SD of α4β7 integrin binding to MAdCAM-1 ([1]; 5 μg/ml): 16.3 ± 14.9%; % Inhibition of α4β7 integrin binding to MAdCAM-1 ([1]; 10 μg/ml, average of triplicate determinations from a single experiment): 0%; Inhibition of α4β7 integrin binding to MAdCAM-1 by nonspecific controls (in words) ([1]; 0.2–10 μg/ml): no significant inhibition
2 | CSFNITTELRDKRKKEHALFNNLDIVQLDGNSSLYRLINC (disulfide 1-40 (inferred)) [Cyclic V2 Acute C, cyclic V2 loop peptide based on acute C strain C06980v0c22] | 72.3% | – | –
3 | CSFNITTSIGDKMQKEYALLYKLDIEPIDNDSTSYRLISC (disulfide 1-40 (inferred)) [Cyclic V2 MN, cyclic V2 loop peptide based on MN strain (subtype B)] | 66.3% | – | –
4 | CSFNMTTELRDKKQKVHALFYKLDIVPIEDNTSSSEYRLINC (disulfide 1-42 (inferred)) [Cyclic V2 TH023, biotinylated cyclic V2 loop peptide of gp120, strain 92TH023 (CRF01_AE), HXB2 157–196] | 62.9% | 80–90% | Binding to α4β7 on RPMI8866 cells (flow cytometry) [3]: bound to α4β7
5 | CTRPNNNTRKSIRIGPGQTFYATGDIIGDIRQAYC (disulfide 1-35 (inferred)) [Cyclic V3 Acute C, cyclic V3 loop peptide based on acute C strain C06980v0c22] | 70.0% | – | –
6 | CTRPNYNKRKRIHIGPGRAFYTTKNIKGTIRQAHC (disulfide 1-35 (inferred)) [Cyclic V3 MN, cyclic V3 loop peptide based on MN strain (subtype B)] | 75.5% | 80% | –
7 | CTRPSNNTRTSINIGPGQVFYRTGDIIGDIRKAYC (disulfide 1-35 (inferred)) [Cyclic V3 TH023, cyclic V3 loop peptide, strain 92TH023, HXB2 295–331] | 67.6% | 80–90% and 80% | –
8 | Synagis: anti-RSV mAb used as a nonspecific antibody control [reference compound] | – | – | Inhibition of α4β7 binding to MAdCAM-1 by nonspecific antibody control ([1]; mAb incubated 45 min either with MAdCAM-1-coated plate or with RPMI8866 cells, 3 experiments): did not inhibit the α4β7 binding
9 | XSFNMTTELRDKKQKVHALFYKLDIVPIEDNTSSSEYRLINX [Linear V2 TH023, linear V2 92TH023 peptide with S-methyl Cysteine at both ends] | 65.5% | – | –
10 | gp120: HIV-1IIIB rgp120 (CHO expressed) [reference compound] | – | – | Binding to α4β7 on RPMI8866 cells (flow cytometry) [3]: bound to α4β7
